The values below come from US6087337A, “Method for treating benign and malignant proliferative skin disease” (Biomeasure Inc., priority 1993, dated 2000).

For test [1], the system named is B16-F10 melanoma. The experiment in a line: Response of intradermally implanted B16-F10 melanoma xenografts to topically applied Somatuline BIM-23014C. In kind it is in vivo, BALB/c derived athymic nude female mice. As for the experimental part:
Response of Intradermally Implanted B16-F10 Melanoma Xenografts to Topically Applied Somatuline BIM-23014C
Eighteen BALB/c derived athymic nude female mice were implanted intradermally (ID), on the right flank, with a 0.02 to 0.05 ml suspension of in vitro propagated B16-F10 melanoma cells suspended in a normal saline solution. Implantation was done with a 23 gauge needle attached to a 1.0 ml syringe on day 0. Such an intradermal implant of the murine B16-F10 melanoma is essentially orthotopic and gives rise to an extremely fast growing tumor. By day 2, flat melanotic growths were evident at the injection site. The lesions resembled in situ melanomas.
Somatuline (D-β-Nal-Cys-Tyr-D-Trp-Lys-Val-Cys-Thr-NH2, available from Biomeasure, Inc. under the product code BIM-23014C) was added to a 50% DMSO in saline solution at a concentration of 10 mgs/ml. After wiping the skin with a gauze pad wet with isopropyl alcohol, a drop (approximately 0.05 ml) of the Somatuline solution was applied to the skin surface of the mice over the melanotic lesion. The solution was rubbed into the skin for approximately 1 minute with a latex gloved (Baxter Scientific Products/Flexam) finger. Well over half of the drop of Somatuline was not absorbed and was lost after the rubbing-in procedure. The controls were treated identically with 50% DMSO in saline solution without any somatostatin analog. Topical treatments were applied twice daily for 11 days beginning on day 3 post implantation.

Test [2] deals with insulin, glucagon, and growth hormone release. To be noted: times more potent than naturally occurring somatostatin; cited from earlier work.

`CC(C)[C@@H]1NC(=O)[C@H](CCCCN)NC(=O)[C@@H](Cc2c[nH]c3ccccc23)NC(=O)[C@H](Cc2ccc(O)cc2)NC(=O)[C@@H](NC(=O)[C@H](N)Cc2ccc3ccccc3c2)CSSC[C@@H](C(=O)N[C@H](C(N)=O)[C@@H](C)O)NC1=O` [BIM-23014C, D-β-Nal-Cys-Tyr-D-Trp-Lys-Val-Cys-Thr-NH2]: in test [1] (0.05 ml topical of DMSO/Saline vehicle containing 10 mg/ml, b.i.d., q.d. 3-14, intradermal B16-F10 implant in nude mice, day 12), the “Tumor Wt. (mgs) Day 12” value worked out at 185.9 ± 47 mgs. In addition, the “growth of the melanotic lesion (tumor growth curves FIG. 1, photographs FIG. 2, days 4, 7, 11)” value in test [1] (topical Somatuline solution 10 mgs/ml in 50% DMSO in saline, twice daily, compared to control mice) is “clear growth inhibition”. Moreover, the “% T/C” value in test [1] (tumor weight day 12, treated vs DMSO/Saline vehicle control, 0.05 ml topical, 10 mg/ml, b.i.d., q.d. 3-14) amounted to 35%.
In the case of cyclo(N-Me-Ala-Tyr-D-Trp-Lys-Val-Phe), in test [2], the “potency relative to naturally occurring somatostatin for the inhibition of insulin, glucagon, and growth hormone release” value was 50-100 times.
